Legend:
[1] = target: Kappa-type opioid receptor (Homo sapiens, UniProt P41145)
[2] = target: Delta-type opioid receptor (Homo sapiens, UniProt P41143)
[3] = target: Mu-type opioid receptor (Homo sapiens, UniProt P35372)
Sequence of Mu-type opioid receptor (P35372 whole entry): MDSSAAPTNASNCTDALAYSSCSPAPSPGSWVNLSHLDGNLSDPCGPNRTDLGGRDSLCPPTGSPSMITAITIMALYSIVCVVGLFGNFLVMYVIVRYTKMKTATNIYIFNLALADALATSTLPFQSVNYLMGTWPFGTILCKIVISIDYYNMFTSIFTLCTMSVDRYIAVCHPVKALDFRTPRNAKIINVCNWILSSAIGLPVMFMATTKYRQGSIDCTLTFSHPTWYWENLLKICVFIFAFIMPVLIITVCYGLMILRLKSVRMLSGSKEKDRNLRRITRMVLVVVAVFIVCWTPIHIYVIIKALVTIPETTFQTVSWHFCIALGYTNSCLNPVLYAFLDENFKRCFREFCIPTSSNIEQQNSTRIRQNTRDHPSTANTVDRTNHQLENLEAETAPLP

Sequence of Kappa-type opioid receptor (P41145 whole entry): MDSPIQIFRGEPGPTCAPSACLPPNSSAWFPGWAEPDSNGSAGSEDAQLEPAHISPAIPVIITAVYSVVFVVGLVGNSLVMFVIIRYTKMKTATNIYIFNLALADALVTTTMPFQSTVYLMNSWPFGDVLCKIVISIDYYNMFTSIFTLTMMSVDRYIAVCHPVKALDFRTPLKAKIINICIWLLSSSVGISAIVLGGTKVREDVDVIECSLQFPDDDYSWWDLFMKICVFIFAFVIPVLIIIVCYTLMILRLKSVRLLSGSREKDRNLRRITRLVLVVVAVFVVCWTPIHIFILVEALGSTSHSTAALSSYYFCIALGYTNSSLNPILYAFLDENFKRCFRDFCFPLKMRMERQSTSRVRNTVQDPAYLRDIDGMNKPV
Sequence of Delta-type opioid receptor (P41143 whole entry): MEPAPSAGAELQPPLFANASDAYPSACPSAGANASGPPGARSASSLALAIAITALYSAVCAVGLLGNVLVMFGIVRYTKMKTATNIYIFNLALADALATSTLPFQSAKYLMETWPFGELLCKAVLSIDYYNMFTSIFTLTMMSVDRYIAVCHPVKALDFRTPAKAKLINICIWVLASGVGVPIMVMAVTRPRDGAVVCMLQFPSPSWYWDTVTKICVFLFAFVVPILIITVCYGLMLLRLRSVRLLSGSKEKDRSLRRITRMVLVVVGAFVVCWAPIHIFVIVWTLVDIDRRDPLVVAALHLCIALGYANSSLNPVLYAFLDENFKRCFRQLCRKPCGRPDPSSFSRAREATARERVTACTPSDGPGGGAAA

SMILES | Ki [1] [nM] | Ki [2] [nM] | Ki [3] [nM]
Oc1ccc2c(c1)[C@@]13CCCC[C@H]1C(C2)N(CC1CCC1)CC3 [MCL-101] | 79 | – | –
O=C(/C=C/C(=O)Oc1ccc2c(c1)[C@]13CCCCC1[C@H](C2)N(CC1CCC1)CC3)Oc1ccc2c(c1)[C@]13CCCCC1[C@H](C2)N(CC1CCC1)CC3 (some centres undefined) [MCL-145] | 78 | 9400 | 200

Source: BindingDB's records for doi:10.1124/jpet.105.084343 (University of Rochester, 2005)
